# Measurements: US6335367B1 (priority 1999, dated 2002)
# Legend:
# Assay type in all cases: in vivo
# Plasiitopara viticola = assay: Grape Downy Mildew (GDM) protective test on grape plants; conditions: 300 grams/hectare; protective spray; seven days after inoculation
# Protocol: Numerous compounds of this invention were tested for fungicidal activity in vivo against the diseases described below. The compounds were dissolved a 1:1 mixture of acetone and methanol or N, N-dimethylformamide and diluted with a 2:1:1 mixture of water, acetone, and methanol (by volume) or water, respectively, to achieve the appropriate concentration. The solution was sprayed onto the plants, and allowed to dry (two hours). Then the plants were inoculated with fungal spores. Each test utilized control plants which were sprayed with the appropriate solvent mixture and inoculated. For these protective tests, the plants were inoculated one day after treating the plants with the fungicide compound. The remainder of the technique of each of the tests is given below along with the results for various compounds described herein by the Compound # against the various fungi at a dose of 300 grams per hectare. The results are percent disease control are compared to the untreated check wherein one hundred was rated as complete disease control and zero as no disease control.
# Plasiitopara viticola was maintained on leaves of grape plants, cultivar. Delaware, in a controlled temperature chamber at 20° C. in humid air with moderate light intensity for 7 to 8 days. A water suspension of the spores from infested leaves was obtained and the spore concentration was adjusted to about 3×10^5 per ml of water. Delaware grape plants were inoculated by spraying the underside of leaves with a DeVilbiss atomizer until small drops were observed on the leaves. The inoculated plants were incubated in a mist chamber for 24 hours at 20° C. The plants were then removed to a controlled environmental room at 20° C. Disease control values were recorded as percent control seven days after inoculation.
# [1] = system: Pucciitia recoitdita (f. sp. tritici); conditions: 300 grams per hectare; protective spray, inoculated one day after treatment; evaluated after 12 days
# [2] = system: Mexican bean beetle Epilachiba varivestis; assay: Insecticidal leaf disk test, Mexican bean beetle (BB); conditions: 300 grams/hectare; sprayed leaf disk; visual inspection 24-48 hours after spraying
# Protocol: (§1) Numerous compounds of this invention were tested for insecticidal activity in vivo against the insects described below. The following test method was used to evaluate compounds of the present invention for insecticidal activity. The compound to be evaluated was dissolved in an appropriate solvent, usually a mix of acetone, methanol and water, and sprayed over three excised leaf disks using a flat fan nozzle. After spraying, the leaf disks were allowed to dry. Two disks were infested with the leaf chewing insects (southern armyworm and Mexican bean beetle) and the third leaf disk was already infested with the two-spotted spider mite prior to spraying. The tested insect species were:
# BB Mexican bean beetle Epilachiba varivestis
# (§2) Observations as percent control were made by visual inspection 24-48 hours after spraying.
# [3] = system: two-spotted spider mite Teranychus uricate; assay: Insecticidal leaf disk test, two-spotted spider mite (MTA); conditions: 300 grams/hectare; leaf disk infested prior to spraying; visual inspection 24-48 hours after spraying
# Protocol: as §1
# MTA two-spotted spider mite Teranychus uricate
# as §2
Structure (SMILES),"percent disease control, grape downy mildew (Plasiitopara viticola) [%]","percent disease control, wheat leaf rust [1] [%]","percent control, Mexican bean beetle [2] [%]","percent control, two-spotted spider mite [3] [%]"
"CNC(=O)C(=NOC)c1ccccc1COc1cccc(C2CC2C(C)=NOC)c1 (single isomer, unassigned) [Compound 3.18B]",100,100,–,–
"COC=C(C(=O)OC)c1ccccc1COc1cccc(C2CC2C(=NNC(=O)c2ccccc2)C2CC2)c1 (stereo not drawn) [Compound 4.98, Methyl (E)-3-methoxy-2-trans-[2-(3-(2-(1-(N-benzoylhydrazinomethylidine)cycloprop-1-yl)cyclopropyl)phenoxymethyl)phenyl]-2-propenoate]",–,100,–,–
"CCCCCCC(=NOC)C1CC1c1cccc(OCc2ccccc2/C(=C\OC)C(=O)OC)c1 (stereo not drawn) [Compound 1.23, Methyl (E)-3-methoxy-2-trans-[2-(3-(2-(methoximinohept-1-yl)cyclopropyl)-phenoxymethyl)phenyl]-2-propenoate]",100,–,100,100
COC=C(C(=O)OC)c1ccccc1COc1cccc(C2CC2C(=NOCc2ccccc2)C2CC2)c1 (stereo not shown) [Compound 1.115],100,–,100,100
"COC=C(C(=O)OC)c1ccccc1COc1cccc(C2CC2C(C)=NOC)c1 (single isomer, unassigned) [Compound 1.18A]",100,100,100,100
"CNC(=O)C(=NOC)c1ccccc1COc1cccc(C2CC2C(C)=NOC)c1 (single isomer, unassigned) [Compound 3.18A]",–,100,–,–
COC=C(C(=O)OC)c1ccccc1COc1cccc(C2CC2C(=NOC)c2ccc(Cl)cc2)c1 (stereo not shown) [Compound 1.04],–,100,–,100
CNC(=O)C(=NOC)c1ccccc1COc1cccc(C2CC2C(=NOC)C2CC2)c1 (stereo not shown) [Compound 3.34],100,100,–,–
"CCC(C)C(NNc1ccccc1)=C1CC1c1cccc(OCc2ccccc2/C(=C\OC)C(=O)OC)c1 (stereo not drawn) [Compound 4.17, Methyl (E)-3-methoxy-2-trans-[2-(3-(2-(2-ethyl-1-(2-phenylhydrazino)propylidene)cyclopropyl)phenoxymethyl)phenyl]-2-propenoate]",–,100,–,–
COC=C(C(=O)OC)c1ccccc1COc1cccc(C2CC2C(=NOC(C)(C)C)C2CC2)c1 (stereo not shown) [Compound 1.110],–,–,100,100
"CCON=C(C1CC1)C1CC1c1cccc(OCc2ccccc2C(=COC)C(=O)OC)c1 (single isomer, unassigned) [Compound 1.108A]",100,100,100,100
COC=C(C(=O)OC)c1ccccc1COc1cccc(C2CC2C(CC(C)C)=NOC)c1 (stereo not shown) [Compound 1.24],100,–,100,100
COC=C(C(=O)OC)c1ccccc1COc1cccc(C2CC2C(=NOC)C2CC=C(C)CC2)c1 (stereo not shown) [Compound 1.33],–,–,100,100
"COC=C(C(=O)OC)c1ccccc1COc1cccc(C2CC2C(C)=NOC)c1 (single isomer, unassigned) [Compound 1.18B]",100,100,100,100
"CCON=C(C1CC1)C1CC1c1cccc(OCc2ccccc2C(=COC)C(=O)OC)c1 (single isomer, unassigned) [Compound 1.108B]",100,100,–,–
"CO/C=C(/C(=O)OC)c1ccccc1COc1cccc(C2CC2C(=NOC)C2CC2)c1 (stereo not drawn) [Compound 1.34, Methyl (E)-3-methoxy-2-trans-[2-(3-(2-(methoximinocycloprop-1-yl)cyclopropyl)phenoxymethyl)phenyl]-2-propenoate]",100,100,100,100
